{"source": "patent US20070197424A1", "about": "“Glatiramer acetate for use as an immuno-modulatory agent” (priority 2003, published 2007)", "key": {"[1]": {"test_system": "CCl4-fibrosis induced mice", "experiment": "CCl4-induced hepatic fibrosis in mice: liver injury and fibrosis assessment", "format": "in vivo, mouse", "conditions": "for liver injury (Ishak injury score): CCl4 fibrosis-induced mice, treated vs untreated; for hepatic fibrosis (Ishak liver fibrosis scoring, Bioquant analysis): compared to the CCl4 fibrosis-induced untreated group, Copaxone 200 microgram/day I.P. or Linomycin 1 mg/ml drinking water, last 2 weeks of 6 weeks CCl4", "procedure": "(§1) Hepatic fibrosis was induced by IP CCl4 administration for 6 weeks in 8 week-old male wild-type C57Bl/6 mice. Within the last 2 weeks animals were also treated with either Copaxone 200 microgram/day I.P (Group A), Linomycin given by drinking water 1 mg/ml (Group B) or normal saline (group C), and were compared to naïve mice (Group D). Eight animals were included in each group. Hepatic fibrosis was evaluated by Ishak Knodell score [Knodell, R. G. et al., Hepatology 1981; 1(5):431-5], hydroxyproline and by analyzing 36 Sirius Red stained histological liver sections per animal with Bioquant® morphometry system. Splenocytes were isolated for FACS analysis from all animal groups. The correlation between hepatic fibrosis and CD4, CD8, NK cells, iKIR and aKIR expression on splenocytes was assessed.\nHepatic fibrosis animal model: Hepatic fibrosis was induced by IP CCl4 (10% as diluted with corn oil) administration 5 microliter/g body weight; for 4-6 weeks in 8 week-old male mice.\n(§2) Liver and colon histology: The posterior one-third of the liver, the rectosigmoid colon were fixed in 10% formalin for 24 hours and then paraffin-embedded in an automated tissue processor. […] sections were cut from each animal specimen. Hematoxylin and eosin (H&E) staining was performed for each animal section.\nLiver sections (15 μm) were stained in 0.1% Sirius Red F3B in saturated picric acid (both from Sigma). Additionally, alpha smooth muscle actin immunohistochemistry was performed using the DAKO kit (CAT# U7033 EPOS, Monoclonal) according to the manufacturer's instructions.\nHepatic Fibrosis quantitation: Relative fibrosis area (expressed as a % of total liver area) was assessed by analyzing 36 Sirius red-stained liver sections per animal. Each field was acquired at 10× magnification and then analyzed using a computerized Bioquant® morphometry system. To evaluate the relative fibrosis area, the measured collagen area was divided by the net field area and then multiplied by 100. Subtraction of vascular lumenal area from the total field area yielded the final calculation of the net fibrosis area.\nAlpha smooth muscle actin immunoblot: Immunoblot analysis of Alpha-SMA in liver extracts is performed as previously described [de Waal Malefyt, R., et al., J. Exp. Med. 1991; 174:915-924] with modifications. Whole-liver protein extracts were prepared in liver homogenization buffer (50 mmol/L Tris-HCl [pH 7.6], 0.25% Triton-X 100, 0.15 M NaCl, 10 mM CaCl2 and complete mini EDTA-free protease inhibitor cocktail (Roche Diagnostics, Mannheim, Germany). Then proteins (30 μg per lane) were resolved on a 10% SDS-polyacrylamide gel under reducing conditions. For immunoblotting, proteins were transferred to a Protran membrane and incubated overnight at 4° C. in a blocking buffer containing 5% skim milk. Anti-SMA mouse monoclonal antibody (DAKO, cat# M0851) and peroxidase-conjugated goat anti-mouse IgG (P.A.R.I.S., Compiègne, France) and enhanced chemiluminescence were used."}, "splenocytes [2]": {"test_system": "splenocytes", "experiment": "FACS analysis of splenocytes in CCl4-fibrosis induced mice", "format": "in vivo, mouse", "conditions": "for spleen CD4:CD8 ratio: vs CCl4-induced fibrosis untreated group, FIG. 7; for spleen total number of NK cells: vs untreated fibrotic and naive groups, FIG. 8", "procedure": "as §1\n(§3) Splenocyte isolation: Spleens were harvested at the time of sacrifice and fractionated through a 70-μm nylon cell strainer. After RBC lysis, splenocytes were washed, suspended in RPMI 1640 medium and stored at 4° C. until FACS analysis.\n(§4) Fluorescent-activated cell sorting analysis (FACS): splenocytes are analysed by direct immunofluorescence reactivity with a series of antibodies (Abs) using standard techniques on a Coulter flow cytometer (BECTON DICKINSON, USA). Briefly, 3×10^5 spleen cells are incubated for 30 minutes at 4° C. with Abs conjugated to fluorescein isothiocyanate (FITC), phycoerythrin (PE) or allophycocyanin (APC), washed three times, and resuspended in fixative solution with 2% paraformaldehyde for analysis. Antibodies used for staining splenocytes are monoclonal anti-mouse CD4, CD8 conjugated by PE and FITC respectively (BD Biosciences). For staining natural killer (NK) cells APC-conjugated rat anti-mouse CD49b/Pan-NK cells monoclonal antibody which identifies the majority of NK cells is used. For killer inhibitory receptors (iKIR) monoclonal mouse anti-mouse Ly-49C and Ly-49I conjugated by PE are used. For the killer activating receptor (aKIR) FITC-conjugated rat anti-mouse LY-49D monoclonal antibody were used. To defined the role of T regulatory cells we used the anti CD25 monoclonal antibodies. To identify lymphocytes staining with peridinin chlorophyll-α protein (Per-CP)-conjugated rat anti-mouse CD45 (BD Biosciences) was used. Lymphocyte subsets are presented as percentage of the CD45+ cells."}, "intrahepatic lymphocytes": {"test_system": "intrahepatic lymphocytes", "experiment": "FACS analysis of intrahepatic lymphocytes in CCl4-fibrosis induced mice", "format": "in vivo, mouse"}, "colitis-induced mice": {"test_system": "colitis-induced mice", "experiment": "TNBS-colitis in mice: macroscopic and microscopic colitis score", "format": "in vivo, mouse", "conditions": "treated vs control colitis-induced mice", "procedure": "Each group includes 10 male animals.\n(§5) Following Ketamine/Xylazine anesthesia, animals were sacrificed, and serum, colons are harvested at day 12. Blood samples are obtained and frozen at −20° C. until assayed for cytokine levels (IL2, IL4, IFNg, IL10 and TGFb). Splenocyte subpopulations are analyzed by FACS for CD4 and CD8, NK markers, and killer inhibitory and activation receptors. Colons are assessed for inflammatory severity.\nColitis induction as inflammatory bowel disease animal model: TNBS-colitis was induced by rectal instillation of TNBS, 1 mg/mouse, dissolved in 100 μl of 50% ethanol as described [Trop S, Samsonov D, Gotsman I, Alper R, Diment J and Ilan Y (1999) Hepatology 29: 746-755].\nas §2"}, "splenocytes [3]": {"test_system": "splenocytes", "experiment": "FACS analysis of spleen cell populations in colitis-induced mice", "format": "in vivo, mouse", "procedure": "as §5, §3, §4"}, "serum cytokines": {"test_system": "serum cytokines", "experiment": "Serum cytokine levels in colitis-induced mice", "format": "in vivo, mouse", "conditions": "vs colitis-induced untreated group", "procedure": "as §5"}, "dendritic cells": {"test_system": "dendritic cells", "conditions": "through modulation of dendritic cells; cited from earlier work"}, "skin and thyroid grafts": {"test_system": "skin and thyroid grafts", "conditions": "cited from earlier work"}, "[4]": {"test_system": "graft-specific T cell lines", "conditions": "in vitro with stimulating allogeneic cells; cited from earlier work"}, "[5]": {"test_system": "relapsing-remitting multiple sclerosis", "conditions": "cited from earlier work"}}, "note": "Entries after “also recorded” stand apart in the source; their conditions may differ.", "data": [{"substance": "glatiramer acetate [Copaxone]", "values": [{"measurement": "anti-fibrotic effect in the animal model", "setting": "[1]; CCl4 fibrosis mouse model, overall conclusion", "value": "significant anti-fibrotic effect"}, {"measurement": "liver injury (Ishak injury score)", "setting": "[1]; listed as Glatiramer acetate", "value": "reduced liver injury"}, {"measurement": "liver injury (Ishak injury score)", "setting": "[1]; listed as copaxon", "value": "no significant difference"}, {"measurement": "liver injury (Ishak injury score)", "setting": "[1]; listed as glatiramer acetate", "value": "significantly lower"}, {"measurement": "fibrosis severity, % of collagen in the analyzed area", "setting": "[1]; after CCl4 fibrosis induction, p<0.0001, FIG. 4", "value": "significantly reduced"}, {"measurement": "hepatic fibrosis (Ishak liver fibrosis scoring, Bioquant analysis)", "setting": "[1]", "value": "significant reduction of fibrosis"}, {"measurement": "hepatic fibrosis (Ishak liver fibrosis scoring, Bioquant analysis)", "setting": "[1]; listed as glatiramer acetate", "value": "significantly lower"}, {"measurement": "alpha smooth muscle actin amounts (Western blot, liver)", "setting": "[1]; vs CCl4 animal group, FIG. 5", "value": "significantly reduced"}, {"measurement": "spleen CD4 cells", "setting": "splenocytes [2]; between fibrotic groups A, B and C, FIG. 6", "value": "no significant changes"}, {"measurement": "spleen CD8 cells", "setting": "splenocytes [2]; compared to group C (p<0.05) or D (p<0.005), FIG. 6", "value": "significantly decreased"}, {"measurement": "spleen NK aKIR:NK iKIR ratio", "setting": "splenocytes [2]; compared to the naive group (group D), p<0.0001, FIG. 9", "value": "significant increase"}, {"measurement": "spleen NK aKIR:NK iKIR ratio", "setting": "splenocytes [2]; compared to the untreated fibrotic group (group C), p<0.05, FIG. 9", "value": "significantly lower"}, {"measurement": "spleen CD4:CD8 ratio", "setting": "splenocytes [2]", "value": "increased; also recorded: significantly elevated"}, {"measurement": "spleen CD4:CD8 ratio", "setting": "splenocytes [2]; listed as A", "value": "significantly elevated"}, {"measurement": "spleen total number of NK cells", "setting": "splenocytes [2]", "value": "elevated"}, {"measurement": "spleen total number of NK cells", "setting": "splenocytes [2]; listed as A", "value": "increased number"}, {"measurement": "intrahepatic CD4 cells", "setting": "intrahepatic lymphocytes; between fibrotic groups A and C, FIG. 10", "value": "no significant changes"}, {"measurement": "intrahepatic NK cells number", "setting": "intrahepatic lymphocytes; compared to fibrosis group C, p<0.0001, FIG. 12", "value": "significantly increased"}, {"measurement": "intrahepatic CD8 cells", "setting": "intrahepatic lymphocytes; compared to group C, p<0.001, FIG. 10", "value": "significantly decreased"}, {"measurement": "intrahepatic CD4:CD8 ratio", "setting": "intrahepatic lymphocytes; compared to group C, p<0.002, FIG. 11", "value": "significantly elevated"}, {"measurement": "macroscopic colitis score (tissue injury)", "setting": "colitis-induced mice; FIG. 13a", "value": "prominent reduction"}, {"measurement": "microscopic colitis score (tissue injury)", "setting": "colitis-induced mice; FIG. 13b, p<0.03", "value": "prominent reduction"}, {"measurement": "CD4 IFN-γ secreting cells", "setting": "splenocytes [3]; colitis induced-Copaxone treated group, p<0.02, FIG. 16", "value": "increase"}, {"measurement": "spleen CD4 cell number", "setting": "splenocytes [3]; colitis induced-Copaxone treated group, p<0.03, FIG. 15", "value": "significant increase"}, {"measurement": "spleen CD8 cell populations", "setting": "splenocytes [3]; colitis-induced mice, FIG. 15", "value": "unaffected"}, {"measurement": "antigen presenting cells (APC), spleen", "setting": "splenocytes [3]; colitis-induced mice, FIG. 17", "value": "seemed to be reduced"}, {"measurement": "serum IL-10 level", "setting": "serum cytokines; p<0.002, FIG. 18", "value": "significantly reduced"}, {"measurement": "serum IL-4 level", "setting": "serum cytokines; p<0.004, FIG. 18", "value": "significantly reduced"}, {"measurement": "serum IFN-γ level", "setting": "serum cytokines; p<0.006, FIG. 18", "value": "significantly reduced"}, {"measurement": "IL-10 production", "setting": "dendritic cells", "value": "increase"}, {"measurement": "Th2 CD4 cell development", "setting": "dendritic cells", "value": "promote"}, {"measurement": "skin graft survival", "setting": "skin and thyroid grafts; skin grafting assay", "value": "prolonged"}, {"measurement": "functional deterioration of thyroid grafts", "setting": "skin and thyroid grafts; thyroid grafting assay", "value": "inhibited"}, {"measurement": "interleukin-2 and interferon-gamma secretion of graft-specific T cell lines", "setting": "[4]", "value": "inhibited"}, {"measurement": "proliferation of graft-specific T cell lines", "setting": "[4]", "value": "inhibited"}, {"measurement": "disease activity and burden of disease (MRI measures)", "setting": "[5]; European/Canadian study", "value": "significantly decrease"}, {"measurement": "tolerability", "setting": "[5]; human, in vivo", "value": "generally well tolerated"}, {"measurement": "overall disability status", "setting": "[5]; patients with RRMS", "value": "significantly improved"}, {"measurement": "efficacy by relapse rate, proportion of relapse-free patients, number of gadolinium-enhancing lesions", "setting": "[5]; subcutaneous 20 mg/day, patients with RRMS", "value": "significantly effective"}]}]}
